Measurements as given in patent US11370796B2, “Substituted pyrazoles as LRRK2 inhibitors” (OSCOTEC INC., priority 2017, dated 2022).
Like-named read-outs stand apart in the source and are kept apart here.

Target: LRRK2 (leucine-rich repeat kinase 2) (Homo sapiens (Human), UniProt Q5S007)
Experiment: Inhibitory effect on LRRK2 in vitro (LANCE kinase assay)
Format: biochemical
Method: The inhibitory effect of Compounds 1 to 62 on LRRK2 (leucine-rich repeat kinase 2) in vitro was measured. In the analysis of the results, IC50 values were calculated for a quantitative comparison of the in vitro activity.
After the compound was dissolved in 100% DMSO at 10 mM, it was serially diluted to the range of 1 μM to 10 μM using biochemical LRRK2 assay buffer (50 mM HEPES (4-(2-hydroxyethyl)-1-piperazineethanesulfonic acid) pH 7.5, 10 mM MgCl2, 1 mM EGTA (1,2-bis(o-aminophenoxy)ethane-N,N,N′,N′-tetraacetic acid), 2 mM DTT (dithiothreitol), and 0.01% TWEEN-20 (Aldrich)). Purified LRRK2 (CARNA BIOSCIENCES) was added to a black U-bottom 96-well microtiter plate containing 6 μl of the serially diluted compound, followed by incubation at room temperature for 30 minutes. For the kinase reaction, ATP and a substrate solution specific urea-polypeptide (ULIGHT™-poly TK, PerkinElimer) were added. The reaction was carried out at room temperature for 1 hour, and it was detected with an detection solution (brand name: LANCE™) containing EDTA. A LANCE detection solution containing europium-labeled antibody ([…] PT66) was added, followed by incubation at room temperature for 50 minutes, to terminate the kinase experiment. The phosphorylated substrate was detected by 665 nm emission measurement. IC50 values were calculated by a non-linear regression analysis using a Prism program (PRISM™ software) with reference to the absence of a kinase inhibitor.
As a comparative assay, a compound LRR2-IN-1, that known to be a reference compound for LRRK2 inhibitor, have also tested an inhibitory activity.

[1] = Table 1, class symbols, read-out: LRRK2 inhibition rate (IC50)
[2] = purified LRRK2, Table 6, read-out: IC50

LRRK2 (leucine-rich repeat kinase 2), sequence (Q5S007 whole entry): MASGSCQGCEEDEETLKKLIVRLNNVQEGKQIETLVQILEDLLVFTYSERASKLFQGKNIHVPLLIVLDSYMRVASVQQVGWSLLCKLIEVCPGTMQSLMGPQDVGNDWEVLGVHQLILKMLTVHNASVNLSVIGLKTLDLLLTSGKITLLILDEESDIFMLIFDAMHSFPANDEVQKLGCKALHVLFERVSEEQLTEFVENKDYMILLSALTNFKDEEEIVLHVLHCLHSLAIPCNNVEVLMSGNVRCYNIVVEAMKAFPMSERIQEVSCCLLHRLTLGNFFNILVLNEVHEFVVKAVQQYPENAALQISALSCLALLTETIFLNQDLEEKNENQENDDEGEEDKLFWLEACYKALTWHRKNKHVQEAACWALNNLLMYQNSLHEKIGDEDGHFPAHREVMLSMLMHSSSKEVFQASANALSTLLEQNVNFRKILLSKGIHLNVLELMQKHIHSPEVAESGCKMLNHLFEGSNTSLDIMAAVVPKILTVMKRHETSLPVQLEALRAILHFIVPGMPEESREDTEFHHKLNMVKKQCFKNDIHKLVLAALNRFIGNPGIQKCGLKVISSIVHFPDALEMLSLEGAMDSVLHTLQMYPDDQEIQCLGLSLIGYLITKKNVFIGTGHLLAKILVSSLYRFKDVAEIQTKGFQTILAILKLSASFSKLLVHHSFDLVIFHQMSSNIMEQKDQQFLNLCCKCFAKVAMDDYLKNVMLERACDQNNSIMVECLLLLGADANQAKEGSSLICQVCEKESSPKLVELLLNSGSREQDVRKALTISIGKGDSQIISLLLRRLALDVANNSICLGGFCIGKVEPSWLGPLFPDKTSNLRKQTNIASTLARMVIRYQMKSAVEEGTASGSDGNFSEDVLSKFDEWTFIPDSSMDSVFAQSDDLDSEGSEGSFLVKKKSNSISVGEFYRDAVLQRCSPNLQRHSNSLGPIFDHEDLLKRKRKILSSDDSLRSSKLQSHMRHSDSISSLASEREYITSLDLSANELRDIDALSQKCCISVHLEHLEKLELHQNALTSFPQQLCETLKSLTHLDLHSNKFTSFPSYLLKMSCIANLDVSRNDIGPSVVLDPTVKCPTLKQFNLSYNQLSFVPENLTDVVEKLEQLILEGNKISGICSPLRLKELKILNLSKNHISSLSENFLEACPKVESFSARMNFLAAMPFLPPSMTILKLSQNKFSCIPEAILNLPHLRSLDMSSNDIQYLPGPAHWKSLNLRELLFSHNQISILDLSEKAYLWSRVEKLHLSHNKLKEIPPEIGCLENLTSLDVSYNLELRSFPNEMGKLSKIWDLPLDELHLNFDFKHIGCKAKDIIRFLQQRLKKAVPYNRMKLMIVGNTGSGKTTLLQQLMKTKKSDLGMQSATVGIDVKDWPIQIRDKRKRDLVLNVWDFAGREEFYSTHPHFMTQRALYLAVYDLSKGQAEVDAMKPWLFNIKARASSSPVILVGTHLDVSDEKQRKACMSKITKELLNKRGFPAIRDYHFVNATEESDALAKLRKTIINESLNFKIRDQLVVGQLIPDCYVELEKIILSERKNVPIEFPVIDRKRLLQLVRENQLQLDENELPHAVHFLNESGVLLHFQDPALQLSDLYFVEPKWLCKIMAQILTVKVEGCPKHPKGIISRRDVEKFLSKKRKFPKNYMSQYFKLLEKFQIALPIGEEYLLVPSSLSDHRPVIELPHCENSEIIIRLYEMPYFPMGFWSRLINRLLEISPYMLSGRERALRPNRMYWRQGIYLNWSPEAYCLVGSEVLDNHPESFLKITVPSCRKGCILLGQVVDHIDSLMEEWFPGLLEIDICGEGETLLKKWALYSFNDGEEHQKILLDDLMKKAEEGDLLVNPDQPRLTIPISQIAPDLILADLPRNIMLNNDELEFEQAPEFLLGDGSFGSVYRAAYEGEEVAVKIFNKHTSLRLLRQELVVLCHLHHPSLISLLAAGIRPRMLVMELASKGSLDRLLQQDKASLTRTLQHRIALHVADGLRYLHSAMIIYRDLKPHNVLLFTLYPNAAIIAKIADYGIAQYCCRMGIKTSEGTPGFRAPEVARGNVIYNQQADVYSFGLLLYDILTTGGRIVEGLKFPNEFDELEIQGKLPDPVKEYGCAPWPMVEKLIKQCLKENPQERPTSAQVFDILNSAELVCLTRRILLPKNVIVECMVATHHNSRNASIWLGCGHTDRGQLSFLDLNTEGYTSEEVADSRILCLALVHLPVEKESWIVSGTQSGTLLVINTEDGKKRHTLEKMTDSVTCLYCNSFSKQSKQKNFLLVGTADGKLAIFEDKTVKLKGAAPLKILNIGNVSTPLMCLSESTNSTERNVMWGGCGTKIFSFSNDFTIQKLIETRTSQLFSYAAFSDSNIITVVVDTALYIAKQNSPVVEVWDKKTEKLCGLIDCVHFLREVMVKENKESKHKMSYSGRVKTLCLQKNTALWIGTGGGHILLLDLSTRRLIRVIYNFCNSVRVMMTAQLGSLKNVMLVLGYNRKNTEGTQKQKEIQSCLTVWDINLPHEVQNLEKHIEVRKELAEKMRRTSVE

SMILES	IC50 [1] [µM]	IC50 [2] [µM]
CCn1cc(Cl)c2cnc(Nc3cn(C4CCCN(S(C)(=O)=O)CC4)nc3Cl)nc21 (centres unmarked) [Compound 42, 5-chloro-N-(3-chloro-1-(1-(methylsulfonyl)azepan-4-yl)-1H-pyrazol-4-yl)-7-ethyl-7H-pyrrolo[2,3-d]pyrimidin-2-amine]	< 0.01	
CCn1nc(Cl)c2cnc(Nc3cnn(C4CCN(S(C)(=O)=O)CC4)c3Cl)nc21 [Compound 62, 3-chloro-N-(5-chloro-1-(1-(methylsulfonyl)piperidin-4-yl)-1H-pyrazol-4-yl)-1-ethyl-1H-pyrazolo[3,4-d]pyrimidin-6-amine]	0.01 to 0.1	
Cn1cc(Cl)c2cnc(Nc3cn(C4CCOCC4)nc3C(F)(F)F)nc21 [Compound 4, 5-chloro-7-methyl-N-(1-(tetrahydro-2H-pyran-4-yl)-3-(trifluoromethyl)-1H-pyrazol-4-yl)-7H-pyrrolo[2,3-d]pyrimidin-2-amine]	0.1 to 1	
CCn1cc(Cl)c2cnc(Nc3cn(C4CCN(S(=O)(=O)C5CC5)CC4)nc3Cl)nc21 [Compound 35, 5-chloro-N-(3-chloro-1-(1-(cyclopropylsulfonyl)piperidin-4-yl)-1H-pyrazol-4-yl)-7-ethyl-7H-pyrrolo[2,3-d]pyrimidin-2-amine]	< 0.01	0.00666
CCn1nc(Cl)c2cnc(Nc3cn(C4CCN(S(C)(=O)=O)CC4)nc3Cl)nc21 [Compound 55, 3-chloro-N-(3-chloro-1-(1-(methylsulfonyl)piperidin-4-yl)-1H-pyrazol-4-yl)-1-ethyl-1H-pyrazolo[3,4-d]pyrimidin-6-amine]	< 0.01	0.00449
Cn1cc(Cl)c2cnc(Nc3cnn(C4CCN(C5COC5)CC4)c3Cl)nc21 [Compound 27, 5-chloro-N-(5-chloro-1-(1-(oxetan-3-yl)piperidin-4-yl)-1H-pyrazol-4-yl)-7-methyl-7H-pyrrolo[2,3-d]pyrimidin-2-amine]	0.01 to 0.1	
CCn1cc(Cl)c2cnc(Nc3cn(C4CCN(C(=O)C(C)C)CC4)nc3Cl)nc21 [Compound 26, 1-(4-(3-chloro-4-(5-chloro-7-ethyl-7H-pyrrolo[2,3-d]pyrimidin-2-ylamino)-1H-pyrazol-1-yl)piperidin-1-yl)-2-methylpropane-1-one]	0.01 to 0.1	
CCn1nc(Cl)c2cnc(Nc3cn(-c4ccc(F)cc4)nc3Cl)nc21 [Compound 44, 3-chloro-N-(3-chloro-1-(4-fluorophenyl)-1H-pyrazol-4-yl)-1-ethyl-1H-pyrazolo[3,4-d]pyrimidin-6-amine]	0.01 to 0.1	
CCn1cc(Cl)c2cnc(Nc3cnn(C4CCN(C5COC5)CC4)c3Cl)nc21 [Compound 28, 5-chloro-N-(5-chloro-1-(1-(oxetan-3-yl)piperidin-4-yl)-1H-pyrazol-4-yl)-7-ethyl-7H-pyrrolo[2,3-d]pyrimidin-2-amine]	< 0.01	0.0065
CCn1nc(Cl)c2cnc(Nc3cnn(C4CCN(C5COC5)CC4)c3Cl)nc21 [Compound 45, 3-chloro-N-(5-chloro-1-(1-(oxetan-3-yl)piperidin-4-yl)-1H-pyrazol-4-yl)-1-ethyl-1H-pyrazolo[3,4-d]pyrimidin-6-amine]	0.01 to 0.1	
CCn1nc(Cl)c2cnc(Nc3cn(C4CCN(C(C)=O)CC4)nc3Cl)nc21 [Compound 58, 1-(4-(3-chloro-4-(3-chloro-1-ethyl-1H-pyrazolo[3,4-d]pyrimidin-6-ylamino)-1H-pyrazol-1-yl)piperidin-1-yl)ethanone]	< 0.01	0.00592
CS(=O)(=O)N1CCC(n2cc(Nc3ncc4c(Cl)nn(CC(F)(F)F)c4n3)c(Cl)n2)CC1 [Compound 49, 3-chloro-N-(3-chloro-1-(1-(methylsulfonyl)piperidin-4-yl)-1H-pyrazol-4-yl)-1-(2,2,2-trifluoroethyl)-1H-pyrazolo[3,4-d]pyrimidin-6-amine]	0.01 to 0.1	
CCn1cc(Cl)c2cnc(Nc3cn(C4CC(C)OC(C)C4)nc3Cl)nc21 (centres unmarked) [Compound 19, 5-chloro-N-(3-chloro-1-(2,6-dimethyltetrahydro-2H-pyran-4-yl)-1H-pyrazol-4-yl)-7-ethyl-7H-pyrrolo[2,3-d]pyrimidin-2-amine]	0.01 to 0.1	
CCn1cc(Cl)c2cnc(Nc3cn(C4CCN(C(=O)N5CCOCC5)CC4)nc3Cl)nc21 [Compound 31, (4-(3-chloro-4-(5-chloro-7-ethyl-7H-pyrrolo[2,3-d]pyrimidin-2-ylamino)-1H-pyrazol-1-yl)piperidin-1-yl)(morpholino)methanone]	< 0.01	0.00466
CCn1nc(Cl)c2cnc(Nc3cn(C4CCCN(S(C)(=O)=O)CC4)nc3Cl)nc21 (centres unmarked) [Compound 51, 3-chloro-N-(3-chloro-1-(1-(methylsulfonyl)azepan-4-yl)-1H-pyrazol-4-yl)-1-ethyl-1H-pyrazolo[3,4-d]pyrimidin-6-amine]	< 0.01	0.00475
CCn1nc(Cl)c2cnc(Nc3cnn(C4CN(C5COC5)C4)c3Cl)nc21 [Compound 61, 3-chloro-N-(5-chloro-1-(1-(oxetan-3-yl)azetidin-3-yl)-1H-pyrazol-4-yl)-1-ethyl-1H-pyrazolo[3,4-d]pyrimidin-6-amine]	0.01 to 0.1	
Cn1ncc(Nc2ncc3c(C(F)(F)F)cn(C)c3n2)c1Cl [Compound 1, N-(5-chloro-1-methyl-1H-pyrazol-4-yl)-7-methyl-5-(trifluoromethyl)-7H-pyrrolo[2,3-d]pyrimidin-2-amine]	0.1 to 1	
CCN1CCC(n2cc(Nc3ncc4c(Cl)cn(CC)c4n3)c(Cl)n2)CC1 [Compound 20, 5-chloro-N-(3-chloro-1-(1-ethylpiperidin-4-yl)-1H-pyrazol-4-yl)-7-ethyl-7H-pyrrolo[2,3-d]pyrimidin-2-amine]	0.01 to 0.1	
CCn1cc(Cl)c2cnc(Nc3cn(C4CCCN(C(=O)C5CC5)CC4)nc3Cl)nc21 (centres unmarked) [Compound 43, (4-(3-chloro-4-(5-chloro-7-ethyl-7H-pyrrolo[2,3-d]pyrimidin-2-ylamino)-1H-pyrazol-1-yl)azepan-1-yl)(cyclopropyl)methanone]	< 0.01	
Clc1nn(C2CC2)cc1Nc1ncc2c(Cl)cn(C3CC3)c2n1 [Compound 15, 5-chloro-N-(3-chloro-1-cyclopropyl-1H-pyrazol-4-yl)-7-cyclopropyl-7H-pyrrolo[2,3-d]pyrimidin-2-amine]	0.01 to 0.1	
CCCCn1cc(Nc2ncc3c(Cl)cn(C)c3n2)c(C(F)(F)F)n1 [Compound 11, N-(1-butyl-3-(trifluoromethyl)-1H-pyrazol-4-yl)-5-chloro-7-methyl-7H-pyrrolo[2,3-d]pyrimidin-2-amine]	1 to 10	
CCn1cc(Cl)c2cnc(Nc3cn([C@H]4CCN(C(=O)C5CCCC5)C4)nc3Cl)nc21 [Compound 39, (S)-(3-(3-chloro-4-(5-chloro-7-ethyl-7H-pyrrolo[2,3-d]pyrimidin-2-ylamino)-1H-pyrazol-1-yl)pyrrolidin-1-yl)(cyclopentyl)methanone]	0.01 to 0.1	
CCn1nc(Cl)c2cnc(Nc3cn(C4CCN(C(=O)C5CC5)CC4)nc3Cl)nc21 [Compound 57, (4-(3-chloro-4-(3-chloro-1-ethyl-1H-pyrazolo[3,4-d]pyrimidin-6-ylamino)-1H-pyrazol-1-yl)piperidin-1-yl)(cyclopropyl)methanone]	< 0.01	0.00722
COc1cc(C(=O)N2CCC(N3CCN(C)CC3)CC2)ccc1Nc1ncc2c(n1)N(C)c1ccccc1C(=O)N2C [LRRK2-IN-1, reference compound]		0.0082
CCn1cc(Cl)c2cnc(Nc3c(C)nn(C4CCN(S(C)(=O)=O)CC4)c3C)nc21 [Compound 34, 5-chloro-N-(3,5-dimethyl-1-(1-(methylsulfonyl)piperidin-4-yl)-1H-pyrazol-4-yl)-7-ethyl-7H-pyrrolo[2,3-d]pyrimidin-2-amine]	0.1 to 1	
FC(F)(F)Cn1nc(Cl)c2cnc(Nc3cnn(C4CCN(C5COC5)CC4)c3Cl)nc21 [Compound 50, 3-chloro-N-(5-chloro-1-(1-(oxetan-3-yl)piperidin-4-yl)-1H-pyrazol-4-yl)-1-(2,2,2-trifluoroethyl)-1H-pyrazolo[3,4-d]pyrimidin-6-amine]	0.01 to 0.1	
CS(=O)(=O)N1CCC(n2cc(Nc3ncc4c(Cl)cn(C5CC5)c4n3)c(Cl)n2)CC1 [Compound 30, 5-chloro-N-(3-chloro-1-(1-(methylsulfonyl)piperidin-4-yl)-1H-pyrazol-4-yl)-7-cyclopropyl-7H-pyrrolo[2,3-d]pyrimidin-2-amine]	< 0.01	0.00202
Clc1cn(C2CC2)c2nc(Nc3cnn(C4CCN(C5COC5)CC4)c3Cl)ncc12 [Compound 29, 5-chloro-N-(5-chloro-1-(1-(oxetan-3-yl)piperidin-4-yl)-1H-pyrazol-4-yl)-7-cyclopropyl-7H-pyrrolo[2,3-d]pyrimidin-2-amine]	0.01 to 0.1	
CC(C)n1cc(Nc2ncc3c(Cl)cn(C)c3n2)c(C(F)(F)F)n1 [Compound 9, 5-chloro-N-(1-isopropyl-3-(trifluoromethyl)-1H-pyrazol-4-yl)-7-methyl-7H-pyrrolo[2,3-d]pyrimidin-2-amine]	0.1 to 1	
CCn1cc(Cl)c2cnc(Nc3cn(C4CCOCC4)nc3Cl)nc21 [Compound 18, 5-chloro-N-(3-chloro-1-(tetrahydro-2H-pyran-4-yl)-1H-pyrazol-4-yl)-7-ethyl-7H-pyrrolo[2,3-d]pyrimidin-2-amine]	0.01 to 0.1	
